ChEMBL document CHEMBL5236550, “Small molecule selenium-containing compounds: Recent development and therapeutic applications” (Eur J Med Chem, 2021)
Converted amounts (≈) assume the structure as drawn. Each block holds one molecule with its values, some of them ahead of it.

Tests used:
[1] = tested on: HeLa; assay: Anticancer activity against human HeLa cells assessed as cell growth inhibition incubated for 48 hrs; type: functional, cell-based
[2] = tested on: K562; assay: Anticancer activity against human K562 cells assessed as cell growth inhibition incubated for 48 hrs by MTT assay; type: functional, cell-based; details: K562, 48 h
[3] = tested on: MDA-MB-361; assay: Anticancer activity against human MDA-MB-361 cells assessed as cell growth inhibition incubated for 48 hrs by MTT assay; type: functional, cell-based; details: MDA-MB-361, 48 h
[4] = tested on: LS174T; assay: Anticancer activity against human LS174T cells assessed as cell growth inhibition incubated for 48 hrs by MTT assay; type: functional, cell-based
[5] = tested on: HeLa; assay: Anticancer activity against human HeLa cells assessed as cell growth inhibition incubated for 48 hrs by MTT assay; type: functional, cell-based
[6] = tested on: Trypanosoma cruzi; assay: Antibacterial activity against Trypanosoma cruzi Dm28c assessed as inhibition of bacterial growth incubated for 72 hrs by microplate reader analysis; type: functional, organism-based
[7] = tested on: Candida albicans; assay: Antifungal activity against Candida albicans ATC90028 assessed as zone of inhibition; type: functional
[8] = tested on: Candida albicans; assay: Antifungal activity against Candida albicans ATC90028 assessed as […] growth inhibition; type: functional
[9] = tested on: Caco-2; assay: Anticancer activity against human Caco-2 cells assessed as cell growth inhibition incubated for 72 hrs by MTT assay; type: functional, cell-based; details: Caco-2, 72 h
[10] = tested on: MCF7; assay: Anticancer activity against human MCF7 cells assessed as cell growth inhibition incubated for 72 hrs by MTT assay; type: functional, cell-based; details: MCF7, 72 h
[11] = tested on: PC-3; assay: Anticancer activity against human PC-3 cells assessed as cell growth inhibition incubated for 72 hrs by MTT assay; type: functional, cell-based; details: PC-3, 72 h
[12] = tested on: BGC-823; assay: Anticancer activity against human BGC-823 cells assessed as cell growth inhibition incubated for 72 hrs by MTT assay; type: functional, cell-based; details: BGC-823, 72 h
[13] = tested on: PANC-1; assay: Anticancer activity against human PANC-1 cells assessed as cell growth inhibition by crystal violet staining based assay; type: functional
[14] = tested on: Plasmodium falciparum; assay: […] inhibition incubated for 72 hrs by light microscopic analysis; type: functional, organism-based; details: K-1, 72 h
[15] = Anticancer activity against human Ela-myc- cells assessed as cell growth inhibition by crystal violet staining based assay; type: functional; details: Ela-myc-1 cell
[16] = tested on: MCF7; assay: Anticancer activity against human MCF7 cells assessed as cell growth inhibition; type: functional, cell-based
[17] = tested on: Caco-2; assay: Anticancer activity against human Caco-2 cells assessed as cell growth inhibition measured upto 72 hrs by MTT assay; type: functional, cell-based; details: Caco-2, 72 h
[18] = tested on: PC-3; assay: Anticancer activity against human PC-3 cells assessed as cell growth inhibition measured upto 72 hrs by MTT assay; type: functional, cell-based; details: PC-3, 72 h
[19] = tested on: MCF7; assay: Anticancer activity against human MCF7 cells assessed as cell growth inhibition measured upto 72 hrs by MTT assay; type: functional, cell-based; details: MCF7, 72 h
[20] = tested on: BGC-823; assay: Anticancer activity against human BGC-823 cells assessed as cell growth inhibition measured upto 72 hrs by MTT assay; type: functional, cell-based; details: BGC-823, 72 h
[21] = Anticancer activity against human PMNL assessed as cell growth inhibition incubated for 5 mins by luminescence reader analysis; type: functional, cell-based
[22] = tested on: PC-3; assay: Anticancer activity against human PC-3 cells assessed as cell growth incubation incubated for 72 hrs by MTT assay; type: functional, cell-based; details: PC-3, 72 h
[23] = tested on: HeLa; assay: Anticancer activity against human HeLa cells assessed as cell growth inhibition incubated for 72 hrs by MTT assay; type: functional, cell-based
[24] = Anticancer activity against human PMNL assessed as cell growth inhibition; type: functional, cell-based
[25] = tested on: LNCaP C4-2; assay: Anticancer activity against human LNCaP C4-2 cells assessed as cell growth inhibition incubated for 24 hrs by MTT assay; type: functional, cell-based; details: LNCaP C4-2, 24 h
[26] = tested on: LNCaP; assay: Anticancer activity against human LNCaP cells assessed as cell growth inhibition incubated for 1.5 hrs by MTT assay; type: functional, cell-based
[27] = tested on: SH-SY5Y; assay: Anticancer activity against human SH-SY5Y cells assessed as cell viability incubated for 24 hrs by MTT assay relative to control; type: functional
[28] = tested on: Human alphaherpesvirus 1; assay: Antiviral activity against Herpes simplex virus 1infected in A549 cells assessed as viral growth inhibition incubated for 1 hrs; type: functional
[29] = tested on: Encephalomyocarditis virus; assay: Antiviral activity against Encephalomyocarditis virus infected in A549 cells assessed as viral growth inhibition incubated for 1 hrs; type: functional, organism-based; details: Cardiovirus A, A549, 1 h
[30] = tested on: PC-3M; assay: Anticancer activity against human PC-3M cells assessed as cell growth inhibition incubated for 24 hrs by MTT assay; type: functional, cell-based
[31] = tested on: Pichia kudriavzevii; assay: Antifungal activity against Candida krusei assessed as fungal growth inhibition incubated for 24 to 48 hrs by microdilution method; type: functional; details: time 24-48 hrs
[32] = tested on: MCF7; assay: Anticancer activity against human MCF7 cells assessed as cell growth incubation incubated for 72 hrs by MTT assay; type: functional, cell-based; details: MCF7, 72 h
[33] = Anticancer activity against human SWO-38 cells assessed as cell growth inhibition incubated for 48 hrs by MTT assay; type: functional, cell-based; details: SWO-38, 48 h
[34] = tested on: SW-620; assay: Anticancer activity against human SW620 cells assessed as cell growth inhibition incubated for 72 hrs by MTT assay; type: functional, cell-based; details: SW-620, 72 h
[35] = tested on: CNE-2; assay: Anticancer activity against human CNE-2 cells assessed as cell growth inhibition incubated for 72 hrs by MTT assay; type: functional, cell-based; details: CNE-2, 72 h
[36] = tested on: A-375; assay: Anticancer activity against human A-375 cells assessed as cell growth inhibition incubated for 72 hrs by MTT assay; type: functional, cell-based; details: A-375, 72 h
[37] = tested on: HL-60; assay: Anticancer activity against human HL-60 cells assessed as cell growth inhibition incubated for 72 hrs by MTT assay; type: functional, cell-based; details: HL-60, 72 h
[38] = tested on: WM-115; assay: Anticancer activity against human WM-115 cells assessed as cell growth inhibition incubated for 72 hrs by MTT assay; type: functional
[39] = Anticancer activity against human WM35 cells assessed as cell growth inhibition incubated for 72 hrs by MTS assay; type: functional, cell-based; details: WM35, 72 h, pooled result: one value given for 4 cell lines, strains, targets or settings
[40] = tested on: Hs68; assay: Anticancer activity against human Hs68 cells assessed as cell growth inhibition incubated for 72 hrs by MTT assay; type: functional, cell-based; details: Hs68, 72 h

Compound: NC(=[Se])N/N=C/c1cccc2cccnc12
IC50 [1]: 6.6 µM
IC50 [2]: 4 µM
IC50 [3]: 9.2 µM
IC50 [4]: 14.4 µM
IC50 [5]: 9.2 µM

Compound: NC(=[Se])NN=C(c1cccc(Br)c1)c1cccc(Br)c1
IC50 [6]: 1.2 µM

MIC [8]: 12.5 µg/mL (≈ 28.2 µM)
Compound: Cc1ccc(C(=O)C[C@@H](c2ccc(Cl)cc2)[C@@H]2CCCc3[se]nnc32)cc1
inhibition zone (IZ) [7]: 17 mm

IC50 [9]: 3.9 µM
IC50 [10]: 6.8 µM
IC50 [11]: 6.6 µM
IC50 [12]: 8.3 µM
Compound: O=C(NCCC[Se][Se]CCCNC(=O)c1ccccc1Nc1cccc(C(F)(F)F)c1)c1ccccc1Nc1cccc(C(F)(F)F)c1

Compound: C[Se](=O)O [METHYLSELENINIC ACID]
IC50 [13]: 2.6 µM
IC50 [14]: 10 µM
IC50 [15]: 3.2 µM
IC50 [16]: 2 µM

IC50 [17]: 1.9 µM
IC50 [18]: 1.9 µM
IC50 [19]: 1.9 µM
IC50 [20]: 1.9 µM
Compound: N#C[Se]CCCNC(=O)c1ccccc1Nc1cccc(C(F)(F)F)c1

Compound: CCN(CC)C(=[Se])c1ccc(Cl)cc1
IC50 [21]: 20.3 µM

Compound: COc1cc(OC)cc(C(=O)[Se]CC(=O)O)c1
IC50 [22]: 4 µM

Compound: O=[N+]([O-])c1ccc2n[se]nc2c1
IC50 [23]: 4.8 µM

Compound: NC(=[Se])N1CCCC1
IC50 [24]: 6.5 µM

Compound: N#C[Se]Cc1ccc(C[Se]C#N)cc1
IC50 [25]: 7.6 µM
IC50 [26]: 7 µM

Compound: O=c1c2ccccc2[se]n1-c1ccccn1
Activity [27]: 84%

Compound: CC(=O)n1[se]c2ccccc2c1=O
MIC [28]: 4 µg/mL (≈ 16.7 µM)
IC50 [29]: 6 µg/mL (≈ 25 µM)

Compound: N#C[Se]Cc1cc(-c2ccccc2)n(-c2ccc(S(N)(=O)=O)cc2)n1
IC50 [30]: 5 µM

Compound: Brc1ccc(-c2c[se]c(NN=C3CCSCC3)n2)cc1
MIC [31]: 3.91 µg/mL (≈ 9.42 µM)

Compound: O=C(O)C[Se]C(=O)c1ccccc1
IC50 [32]: 0.09 µM
IC50 [22]: 6.8 µM

Compound: Nc1ccc(-c2ccc3n[se]nc3c2)cc1N
IC50 [33]: 22.5 µM

Compound: N[C@@H](C[Se][Se]C[C@H](N)C(=O)O)C(=O)O
IC50 [34]: 7.3 µM
IC50 [14]: 65 µM
IC50 [35]: 5.6 µM
IC50 [36]: 3.6 µM
IC50 [37]: 34.5 µM

Compound: Clc1ccc(-c2c[se]c(NN=C3CCSCC3)n2)cc1
MIC [31]: 3.91 µg/mL (≈ 10.5 µM)

MIC [8]: 6.25 µg/mL (≈ 18.1 µM)
Compound: Clc1ccccc1C(c1ccccc1)(c1ccccc1)n1ccnc1 [CLOTRIMAZOLE]
inhibition zone (IZ) [7]: 28 mm

Compound: N#C[Se]CCCCCC(=O)Nc1ccccc1
IC5 [38]: 0.8 µM

Compound: Cc1ccc(-c2cc(C(F)(F)F)nn2-c2ccc(S(N)(=O)=O)cc2)cc1 [CELECOXIB]
IC50 [39]: 55.6 µM

Compound: C[Se]C[C@H](N)C(=O)O [METHYLSELENOCYSTEINE]
IC50 [10]: 193 µM
IC50 [34]: 633 µM
IC50 [36]: 54 µM
IC50 [40]: 50 µM

Compound: N#Cc1ccc(C(=O)[Se]CC(=O)O)cc1
IC50 [22]: 10 µM

Compound: COc1ccc(-c2c[se]c(NN=C3CCSCC3)n2)cc1
MIC [31]: 3.91 µg/mL (≈ 10.7 µM)
